For one data set, the system named is C6 glioma cells. Nature of the data set: [3H]glutamate uptake in C6 subclones. Type of data set: cell-based, rat. Conditions: 5 min. How it is done: Glutamate uptake was analyzed by mixing 0.4 μCi/ml L-[^3H]glutamate (specific activity 0.03 Ci/mmol) with 150 μM glutamate in a buffer containing […] NaCl, 1.5 mM K2HPO4, 2 MM MgCl2, 2 mM CaCl2, 10 mM HEPES and 10 mM glucose with pH 7.3 (ref 6). NaCl was replaced by choline chloride for sodium-free conditions. Cells were washed twice, then incubated in the uptake solution with various blockers for 5 min., followed by 3 washes with ice-cold buffer, and then dissolved in 0.3 N NaOH. The activity of [^3H]glutamate was detected with liquid scintillation counter (1209 Rackbeta, LKB Wallac, San Francisco, Calif.). Protein concentration was determined by using the DC protein assay kit from BioRad.

The subject of data set [1] is C6 cells. Nature of the data set: Glutamate release from C6 subclones (bioluminescence assay). It counts as cell-based, rat. How it is done: Confluent cultures were washed twice and incubated in fresh culture medium. Samples of the supernatant were collected at 1, 3 and 6 hours. […] Glutamate release from freshly prepared brain slices was imaged by preparing 300-μm slices by vibratome 5 days after tumor implantation. The sections were prepared in artificial CSF as described (Kang et al., “Astrocyte-Mediated Potentiation of Inhibitory Synaptic Transmission,”Nature Neurosci., 1:683–692 (1998), which is hereby incorporated in its entirety). After 15 to 30 min. incubation in CSF, the slices were transferred to microscope stage and immersed in the bioluminescence mixture (1 ml) at room temperature. To modify the bioluminescence mixture to be tolerated by live tissue, glycerol was removed using Hank's buffered salt solution as the base. The luminescence was imaged by an intensified CCD camera (Hamamatsu, C2400) attached to a BX-50 microscope with a 50 mm camera lens (Olympus). The relative light production over the tumor versus normal brain tissue was quantified. Light emission higher than a background threshold was superimposed upon a bright-field image of the same section obtained immediately after luminescence recordings. The brain slices were fixed overnight in 4% paraformaldehyde and stained with cresylviolet.

A further data set relates to cortical neurons. Nature of the data set: Coculture of cortical neurons with C6Glu+ glioma aggregates, neuronal viability. The following applies: pretreatment; 24 h coculture (10 μM per FIG. 1C). It counts as cell-based, rat. On the procedure:
Glioma cell aggregates were produced by plating 100,000 C6Glu^+ or C6Glu^−cells in plates with non-adhesive substrate (ultra low cluster 3473; Costar, Cambridge, Mass.). Twenty-four hours later, the glioma aggregates were loaded with calcein AM (green, 2 μM, excitation 488 nm) and transferred to neuronal cultures. Cortical neuronal cultures were preloaded with the cell tracker Sytox 62 (white, 0.1 μM, excitation 647 nm).
To study the direct cellular interactions, the glioma clones were cocultured with cortical neurons (Id.). Twenty-four hours after adding aggregates of C6Glu^− cells to established neuronal cultures, 86±2% of the neurons remained viable (FIGS. 1C–D). In comparison, only 14±1% of neurons survived in sister cultures after addition of C6Glu^+ cell aggregates (FIGS. 1C–D).

For data set [2], the system named is TUNEL^+ neurons surrounding C6Glu^+ cell tumors. Nature of the data set: TUNEL staining of degenerating neurons surrounding C6Glu+ tumors. Conditions: five-day-old tumors; P<0.001 one-way ANOVA. It counts as in vivo, rat. The source says:
Polyclonal antibodies against glutamate transporters were supplied by and used as described by Rothstein et al., “Localization of Neuronal and Glial Glutamate Transporters,” Neuron, 13:713–725 (1994), which is hereby incorporated in its entirety. Neuronal death was visualized with the TUNEL technique (Oncor, Gaithersburg), and counterstained with hematoxilin and eosin (H&E) (Lin et al., “Ga-Junction-Mediated Propagation and Amplification of Cell Injury,” Nature Neurosci., 1, 494–500 (1998), which is hereby incorporated in its entirety). […] TUNEL^+ neurons within a distance of 200 μm from the tumor border were counted by a blinded observer. […]
To test the possibility that elevation of extracellular glutamate triggers excitotoxic neuronal death in normal brain tissue invaded by C6Glu^+ tumor cells, TUNEL (terminal deoxynucleotidyl-transferase-mediated dUTP-blotin nick end-labeling) staining was used to identify degenerating neurons (Lin et al., “Ga-Junction-Mediated Propagation and Amplification of Cell Injury,” Nature Neurosci., 1, 494–500 (1998), which is hereby incorporated in its entirety). Five-day-old tumors were evaluated to minimize indirect injury resulting from the very large tumors in animals with C6Glu^+ cell implants. […]

Data set [3] concerns C6 cells. Description: Proliferation of C6 glioma cells in culture. It counts as cell-based, rat. On the procedure:
(§1) Ten-day-old cortical neurons were loaded with the calcium indicator, fluo-3 AM (5 μM, 1 h), and the fluorescence signal was detected by confocal microscopy (MRC1000, BioRad, Richmond, Calif.) as described (Lin et al., “Ga-Junction-Mediated Propagation and Amplification of Cell Injury,” Nature Neurosci., 1:494–500 (1998); Zhang et al., “Tamoxifen-Induced Enhancement of Calcium Signaling in Glioma and MCF-7 Breast Cancer Cells,” Cancer Res., 60:5395–5400 (2000), which are hereby incorporated in their entirety). 100 μl conditioned medium from the C6 clones was added to the culture (initial media volume was 300 μl). Proliferation of the C6 subclones was determined by cell counting or by the Alamar blue assay (Biosource, Camarillo, Calif.) and cellular invasiveness evaluated using Matrigel-coated transwell inserts as described (Zhang et al., “Direct Gap Junction Communication Between Malignant Glioma Cells and Astrocytes,” Cancer Res., 59:1994–2003 (1999), which is hereby incorporated in its entirety).

Data set [4] concerns cultured cortical neurons. Description: Calcium measurement (fluo-3) in cortical neurons after conditioned medium from C6Glu+ cells. Type of data set: cell-based, rat. Conditions: 10 μM. On the procedure:
as §1
After transfer of conditioned medium from C6Glu^+ cells to cultured cortical neurons that had been first loaded with the calcium indicator fluo-3, there was a rapid increase in the relative emission of fluo-3, indicating increased cytosolic calcium levels (FIG. 1B). […]

The next data set concerns C6Glu^+ cell implants. Nature of the data set: C6Glu+ glioma implantation in striata of Wistar rats, tumor size 10 days after implantation. It counts as in vivo, rat. How it is done: Rats (male Wistar, 250–270 g) anesthetized with pentobarbital (50 mg/kg) were placed in a stereotactic frame and 1×10^4 C6 cells were injected at a depth of 6 mm in the right striata with a Hamilton syringe. Injection coordinates with regard to bregma were 0.5 mm posterior and 3.0 mm lateral. Fischer rats (170–200 g) were injected with 1×10^4 RG2 cells. In some experiments, the glioma cells were prelabeled with the cell tracker, CMFDA (2 μM, Molecular Probes, Eugene, Oreg.) (Lin et al., “Ga-Junction-Mediated Propagation and Amplification of Cell Injury,” Nature Neurosci., 1:494–500 (1998), which is hereby incorporated in its entirety). Ten days after implantation, the anesthetized rats were perfused with 4% paraformaldehyde in phosphate buffer. After post-fixation for 24 hours, the brains were sectioned into 50–500-μm slices by a vibratome (Kang et al., “AstrocyteMediated Potentiation of Inhibitory Synaptic Transmission,” Nature Neurosci., 1:682–692 (1998), which is hereby incorporated in its entirety). The slices were imaged using a Sony digital camera (DSC-S50) and tumor volume calculated using NIH Image software.
Based upon the above observations, it was investigated whether excitotoxic neuronal death accelerates tumor expansion. […]

For data set [5] the following is noted: 25 mg/kg i.p.; microdialysis; cited from earlier work.
The conditions of data set [6]: patients with Parkinson's Disease, dementia, and spasticity; cited from earlier work.
The test system of the next data set is RG2 glioma cells. Nature of the data set: Proliferation of RG2 glioma cells in culture. It counts as cell-based, rat.
Another data set relates to RG2Glu^+ cell implants. Description: RG2Glu+ glioma implantation in Fischer rats, tumor volume. It counts as in vivo, rat. Conditions: 25 mg/kg twice daily i.p., 10 d. How it is done: Rats (male Wistar, 250–270 g) anesthetized with pentobarbital (50 mg/kg) were placed in a stereotactic frame and 1×10^4 C6 cells were injected at a depth of 6 mm in the right striata with a Hamilton syringe. Injection coordinates with regard to bregma were 0.5 mm posterior and 3.0 mm lateral. Fischer rats (170–200 g) were injected with 1×10^4 RG2 cells. In some experiments, the glioma cells were prelabeled with the cell tracker, CMFDA (2 μM, Molecular Probes, Eugene, Oreg.) (Lin et al., “Ga-Junction-Mediated Propagation and Amplification of Cell Injury,” Nature Neurosci., 1:494–500 (1998), which is hereby incorporated in its entirety). Ten days after implantation, the anesthetized rats were perfused with 4% paraformaldehyde in phosphate buffer. After post-fixation for 24 hours, the brains were sectioned into 50–500-μm slices by a vibratome (Kang et al., “AstrocyteMediated Potentiation of Inhibitory Synaptic Transmission,” Nature Neurosci., 1:682–692 (1998), which is hereby incorporated in its entirety). The slices were imaged using a Sony digital camera (DSC-S50) and tumor volume calculated using NIH Image software. […]

Take `O=C(O)[C@@H]1CN[C@@H](C(=O)O)C1` (relative stereo) [trans-PDC, trans-pyrrolidine-2,4-dicarboxylate]: the “uptake of [3H]glutamate in C6Glu+ cells” value in the data set on C6 glioma cells (200 μM) is listed as “not affected”. Besides, in the data set on C6 glioma cells, the “[3H]glutamate uptake in C6Glu- cells” value is listed as “significantly reduced” and the “[3H]glutamate uptake in C6WT cells” value is given as “significantly reduced”. In addition, in the data set with C6 cells [1] (6-h period), the “glutamate release from C6 cells” value is “not affected”.

For the molecule `C[C@]12N[C@H](Cc3ccccc31)c1ccccc12` [MK801, dizocilpine], the “neuronal loss in coculture with C6Glu+ cell aggregates” value with cortical neurons was “attenuated the neuronal loss”. Also, in [2], the “number of TUNEL+ neurons surrounding C6Glu+ cell tumors” value is recorded as “reduced”. Also, the “proliferation rate of C6 cells in vitro” value in the data set with C6 cells [3] (10 or 100 μM per FIG. 4B) is given as “did not reduce”. Further, in data set [4], the “increase in fluo-3 emission (cytosolic calcium) in cortical neurons” value is “blocked”. Moreover, the tumor size in the data set with C6Glu^+ cell implants (1 mg/kg twice daily i.p., 10 days after injection of C6Glu+ cells, vehicle 106±19 mm^3, P<0.001) turned out to be 54.9±11 mm^3.

On to `N[C@H](C(=O)O)c1ccc(C(=O)O)cc1` [S-4CPG, (s)-4-carboxyphenylglycine], for which the “glutamate release from C6 cells” value in the data set on C6 cells [1] (100 μM, any of the three clones) was “no effect”.

`N[C@@H](CSSC[C@H](N)C(=O)O)C(=O)O` [cystine]: the “glutamate release from C6 cells” value with C6 cells [1] (addition of extracellular cystine, any of the three clones) is given as “no effect”.

On to `CC12CC3CC(C)(C1)CC(N)(C3)C2` [memantine], for which the “peak concentrations in the central nervous system” value in [5] was 1 to 2 µM. Also, the “side effects on prolonged administration” value in [6] is “few side effects”. Besides, the “proliferation of RG2 glioma cells” value is “significant reduction” with RG2 glioma cells (100 μM or higher) and “did not reduce” in the data set with RG2 glioma cells (low concentrations). Also, the “proliferation of cultured C6Glu+ cells” value with C6 cells [3] (100 μM or higher) was “significant reduction”; in the data set with C6 cells [3] (low concentrations), “did not reduce”. Further, the “tumor volume smaller than vehicle-treated rats” value in the data set with RG2Glu^+ cell implants is reported as 26%. Also, in the data set on C6Glu^+ cell implants (10 d after implantation, P<0.001 (FIG. 6D)), the “growth of C6Glu+ tumors” value is on record as “effectively restricted the growth”.

The values above are taken from patent publication US7250394B2, “Treatment of glial tumors with glutamate antagonists” (priority 2001, dated 2007).
